Reference: the Kinase Knowledgebase extract (Sharma et al. 2016)
Where “and” joins values, the source holds several entries; their conditions need not be identical. Equal entries are not always repeated.

What was measured:
[1] = molecular target: PIK3CD (Human) (UniProt O00329); experiment: Assessment of Stimulus Induced TCE Cell Proliferation; settings: t cells
[2] = test system: PIK3CD (mouse); experiment: Assessment of Stimulus Induced B Cell Proliferation; settings: b cells
[3] = molecular target: PIK3CD (Human) (UniProt O00329); experiment: Evaluation of PIK3CD inhibitors on Elastase Release in Human PMN Cells
[4] = molecular target: PIK3CB (UniProt P42338); experiment: Inhibition of PIK3CB Kinase Activity; settings: for inhibition: concentration not given here
Sequence of PIK3CB (P42338 whole entry, looked up): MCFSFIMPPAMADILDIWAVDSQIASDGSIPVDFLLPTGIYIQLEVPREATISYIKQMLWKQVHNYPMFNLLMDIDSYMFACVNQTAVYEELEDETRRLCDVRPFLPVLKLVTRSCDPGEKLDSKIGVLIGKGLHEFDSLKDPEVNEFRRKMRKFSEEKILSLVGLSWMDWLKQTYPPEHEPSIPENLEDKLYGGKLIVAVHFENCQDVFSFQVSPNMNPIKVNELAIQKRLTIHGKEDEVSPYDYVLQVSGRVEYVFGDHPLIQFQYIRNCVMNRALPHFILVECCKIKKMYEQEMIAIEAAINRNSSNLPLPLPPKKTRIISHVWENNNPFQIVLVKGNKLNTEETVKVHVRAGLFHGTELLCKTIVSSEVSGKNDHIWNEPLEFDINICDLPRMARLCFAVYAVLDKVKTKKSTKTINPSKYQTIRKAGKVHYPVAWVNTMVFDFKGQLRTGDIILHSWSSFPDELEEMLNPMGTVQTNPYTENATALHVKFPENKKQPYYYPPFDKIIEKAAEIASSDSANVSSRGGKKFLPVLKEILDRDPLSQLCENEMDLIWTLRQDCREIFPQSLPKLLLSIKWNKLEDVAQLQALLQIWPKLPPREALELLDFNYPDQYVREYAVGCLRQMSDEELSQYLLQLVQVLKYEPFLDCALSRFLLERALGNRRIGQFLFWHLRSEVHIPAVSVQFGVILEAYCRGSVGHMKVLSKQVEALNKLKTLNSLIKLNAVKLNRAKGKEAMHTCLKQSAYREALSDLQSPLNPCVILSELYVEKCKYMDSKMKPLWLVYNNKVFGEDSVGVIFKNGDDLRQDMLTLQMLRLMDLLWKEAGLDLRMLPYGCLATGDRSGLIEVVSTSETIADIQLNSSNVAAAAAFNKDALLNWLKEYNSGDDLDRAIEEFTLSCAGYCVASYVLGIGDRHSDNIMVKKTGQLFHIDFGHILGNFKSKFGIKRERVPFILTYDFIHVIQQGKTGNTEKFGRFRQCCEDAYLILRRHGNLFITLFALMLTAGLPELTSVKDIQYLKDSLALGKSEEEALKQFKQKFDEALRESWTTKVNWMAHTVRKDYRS

[5] = molecular target: PIK3CA (UniProt P42336); experiment: Inhibition of PIK3CA Kinase Activity; settings: for inhibition: concentration not given here
Sequence of PIK3CA (P42336 whole entry, looked up): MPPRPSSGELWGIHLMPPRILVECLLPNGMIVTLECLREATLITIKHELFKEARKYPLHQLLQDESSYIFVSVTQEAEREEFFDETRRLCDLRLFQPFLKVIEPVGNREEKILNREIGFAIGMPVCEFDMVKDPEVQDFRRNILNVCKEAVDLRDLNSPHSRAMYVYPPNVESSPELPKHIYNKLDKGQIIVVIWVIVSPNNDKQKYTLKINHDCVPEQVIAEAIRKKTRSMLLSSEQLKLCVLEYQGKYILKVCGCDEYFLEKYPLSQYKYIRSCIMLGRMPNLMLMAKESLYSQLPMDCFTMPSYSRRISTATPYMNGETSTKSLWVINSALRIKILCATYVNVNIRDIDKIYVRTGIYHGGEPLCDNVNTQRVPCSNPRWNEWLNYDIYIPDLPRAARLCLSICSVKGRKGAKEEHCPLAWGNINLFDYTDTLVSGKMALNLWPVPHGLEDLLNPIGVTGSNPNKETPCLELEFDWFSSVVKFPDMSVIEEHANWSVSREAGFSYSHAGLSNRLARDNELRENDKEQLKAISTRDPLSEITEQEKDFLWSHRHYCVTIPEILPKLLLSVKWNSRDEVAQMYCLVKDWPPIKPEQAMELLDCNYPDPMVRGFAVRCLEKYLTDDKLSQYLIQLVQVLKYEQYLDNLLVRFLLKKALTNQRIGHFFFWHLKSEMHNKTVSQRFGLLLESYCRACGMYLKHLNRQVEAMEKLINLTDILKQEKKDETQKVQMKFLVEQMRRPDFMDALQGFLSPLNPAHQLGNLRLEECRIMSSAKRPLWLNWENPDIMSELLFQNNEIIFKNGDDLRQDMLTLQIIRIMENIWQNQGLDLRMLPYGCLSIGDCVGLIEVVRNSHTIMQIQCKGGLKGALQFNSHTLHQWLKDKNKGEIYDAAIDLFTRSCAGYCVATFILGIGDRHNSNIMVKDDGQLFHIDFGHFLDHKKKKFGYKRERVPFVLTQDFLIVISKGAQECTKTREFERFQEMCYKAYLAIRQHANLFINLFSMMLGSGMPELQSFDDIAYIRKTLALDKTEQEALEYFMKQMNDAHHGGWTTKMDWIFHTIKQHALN

[6] = molecular target: PIK3CD (UniProt O00329); experiment: Inhibition of PIK3CD Kinase Activity
Sequence of PIK3CD (O00329 whole entry, looked up): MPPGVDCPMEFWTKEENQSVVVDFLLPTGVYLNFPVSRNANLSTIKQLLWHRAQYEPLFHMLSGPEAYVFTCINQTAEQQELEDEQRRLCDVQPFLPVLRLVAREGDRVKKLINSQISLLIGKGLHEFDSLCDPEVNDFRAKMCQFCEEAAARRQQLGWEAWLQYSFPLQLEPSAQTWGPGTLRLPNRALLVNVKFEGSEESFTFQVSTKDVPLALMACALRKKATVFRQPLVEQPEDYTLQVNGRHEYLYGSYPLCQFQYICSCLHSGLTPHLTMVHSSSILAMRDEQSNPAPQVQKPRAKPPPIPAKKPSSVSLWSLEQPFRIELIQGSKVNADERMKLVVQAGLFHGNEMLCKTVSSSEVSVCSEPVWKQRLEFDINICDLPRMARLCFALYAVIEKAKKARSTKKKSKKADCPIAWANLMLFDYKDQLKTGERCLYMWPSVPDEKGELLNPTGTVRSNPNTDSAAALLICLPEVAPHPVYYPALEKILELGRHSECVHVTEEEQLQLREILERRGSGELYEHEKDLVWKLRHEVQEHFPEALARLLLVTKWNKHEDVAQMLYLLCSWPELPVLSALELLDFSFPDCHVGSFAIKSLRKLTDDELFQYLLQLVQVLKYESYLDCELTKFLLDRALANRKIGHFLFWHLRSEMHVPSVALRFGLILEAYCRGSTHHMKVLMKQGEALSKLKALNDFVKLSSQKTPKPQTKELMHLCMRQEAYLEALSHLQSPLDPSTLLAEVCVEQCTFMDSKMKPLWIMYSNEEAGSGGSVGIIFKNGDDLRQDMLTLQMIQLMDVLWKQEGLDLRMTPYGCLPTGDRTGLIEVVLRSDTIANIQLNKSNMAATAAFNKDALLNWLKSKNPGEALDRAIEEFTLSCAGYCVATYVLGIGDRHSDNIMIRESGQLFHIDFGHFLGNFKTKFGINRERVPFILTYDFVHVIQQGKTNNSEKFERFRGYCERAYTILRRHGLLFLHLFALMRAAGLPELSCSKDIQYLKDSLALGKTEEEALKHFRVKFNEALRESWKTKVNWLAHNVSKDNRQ

[7] = molecular target: PIK3CG (UniProt P48736); experiment: Inhibition of PIK3CG Kinase Activity; settings: for inhibition: concentration not given here
Sequence of PIK3CG (P48736 whole entry, looked up): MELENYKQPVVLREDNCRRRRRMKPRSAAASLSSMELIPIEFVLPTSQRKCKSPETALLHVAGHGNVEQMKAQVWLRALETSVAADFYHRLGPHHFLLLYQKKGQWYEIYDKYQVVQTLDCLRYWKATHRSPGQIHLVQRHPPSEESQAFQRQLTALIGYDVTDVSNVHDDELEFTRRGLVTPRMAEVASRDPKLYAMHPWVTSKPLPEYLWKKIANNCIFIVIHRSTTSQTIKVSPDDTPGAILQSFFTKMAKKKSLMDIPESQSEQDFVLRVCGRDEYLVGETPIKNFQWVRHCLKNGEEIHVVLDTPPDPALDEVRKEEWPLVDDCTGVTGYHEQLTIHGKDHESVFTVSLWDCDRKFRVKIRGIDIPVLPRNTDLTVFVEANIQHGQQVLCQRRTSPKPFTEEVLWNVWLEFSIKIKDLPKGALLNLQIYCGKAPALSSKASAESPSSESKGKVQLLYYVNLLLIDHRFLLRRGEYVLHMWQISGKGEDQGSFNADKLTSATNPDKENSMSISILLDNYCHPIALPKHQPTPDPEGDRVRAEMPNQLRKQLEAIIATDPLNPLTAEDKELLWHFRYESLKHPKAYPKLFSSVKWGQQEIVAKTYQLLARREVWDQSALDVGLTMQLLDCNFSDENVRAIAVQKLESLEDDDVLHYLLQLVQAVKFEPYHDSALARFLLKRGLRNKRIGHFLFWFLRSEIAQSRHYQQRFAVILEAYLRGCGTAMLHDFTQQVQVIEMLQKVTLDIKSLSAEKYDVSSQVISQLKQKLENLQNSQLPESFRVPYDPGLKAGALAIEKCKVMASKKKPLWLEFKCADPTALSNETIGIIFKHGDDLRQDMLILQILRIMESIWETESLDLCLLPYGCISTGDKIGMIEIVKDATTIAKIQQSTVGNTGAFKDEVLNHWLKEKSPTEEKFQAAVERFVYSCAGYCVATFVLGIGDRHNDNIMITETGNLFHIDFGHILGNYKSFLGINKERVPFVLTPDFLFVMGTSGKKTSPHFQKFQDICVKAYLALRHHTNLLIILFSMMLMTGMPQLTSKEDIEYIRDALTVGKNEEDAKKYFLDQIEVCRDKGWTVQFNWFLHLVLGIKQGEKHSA

[8] = molecular target: PIK3CD (Human) (UniProt O00329); experiment: Evaluation of PIK3CD inhibitors on Neutrophil Migration; settings: pmn
[9] = molecular target: PIK3CD (Human) (UniProt O00329); experiment: Evaluation of PIK3CD inhibitors on Basophil Function by Histamine Release Assay; settings: basophils
[10] = molecular target: PIK3CD (Human) (UniProt O00329); experiment: Assessment of Cell Proliferation in KU812 Cells
[11] = test system: PIK3CD (mouse); experiment: Evaluation of PIK3CD inhibitors on Osteoclast Function; settings: bone marrow, dose or concentration not given here
[12] = molecular target: PIK3CD (Human) (UniProt O00329); experiment: Assessment of RWLeu4 Cell Proliferation

Sequence of PIK3CD (Human) (O00329 whole entry, looked up): as the sequence (O00329 whole entry, looked up) above

Row | SMILES | EC50 [1] [µM] | EC50 [2] [nM] | EC50 [3] [nM] | IC50 [4] | inhibition [5] [%] | inhibition [4] [%] | further results
1 | Cc1cccc2nc(Cn3cnc4c(N)ncnc43)n(-c3ccccc3Cl)c(=O)c12 | 4.2 | 300 | 400 | 30 µM and 72 µM |  |  | 
2 | CCOC(=O)Cn1c(CSc2ncnc3[nH]cnc23)nc2cccc(F)c2c1=O |  |  | 9000 |  | 2 | 26 | 
3 | Nc1ncnc2c1ncn2Cc1nc2ccc(Cl)cc2c(=O)n1-c1ccccc1Cl |  |  |  |  | 7 | 11 | 
4 | COc1cc2nc(Cn3cnc4c(N)ncnc43)n(-c3ccccc3Cl)c(=O)c2cc1OC |  |  |  | 45 µM | 17 |  | 
5 | O=c1c2ccccc2nc(CSc2ncnc3[nH]cnc23)n1-c1cccc(Cl)c1 |  |  |  |  | 33 | 35 | 
6 | O=c1c2c(F)cccc2nc(CSc2ncnc3[nH]cnc23)n1Cc1ccccc1 | 2.6 | 1400 |  |  | 17 | 23 | 
7 | O=c1c2cccc(C(F)(F)F)c2nc(CSc2ncnc3[nH]cnc23)n1-c1ccccc1Cl |  |  |  |  | 12 | 7 | IC50 [6]: 4.2 µM
8 | CCCCn1c(CSc2ncnc3[nH]cnc23)nc2ccccc2c1=O | 2.9 | 1400 | 5000 |  |  |  | 
9 | Nc1ncnc2c1ncn2Cc1nc2cccc(F)c2c(=O)n1-c1ccccc1Cl | 3.9 | 700 | 4300 | 46 µM |  | 18 | inhibition [7]: 9%
10 | O=c1c2c(Cl)cccc2nc(CSc2ncnc3[nH]cnc23)n1-c1ccccc1-c1ccccc1 |  | 1400 |  | 13 µM |  | 27 | 
11 | Cc1cccc2nc(CSc3ncnc4[nH]cnc34)n(-c3c(Cl)cccc3Cl)c(=O)c12 |  | 600 |  | 11 µM and 103 µM | 8 |  | IC50 [5]: 19 µM
12 | Cc1cccc2nc(CSc3ncnc4[nH]cnc34)n(-c3ccccc3F)c(=O)c12 |  | 200 | 700 |  | 13 |  | IC50 [5]: 74 µM
13 | Nc1ncnc2c1ncn2Cc1nc2cc(F)ccc2c(=O)n1-c1ccccc1Cl | 5.7 | 3900 |  |  |  | 47 | IC50 [5]: 92 µM
14 | O=c1c2c(Cl)cccc2nc(CSc2ncnc3[nH]cnc23)n1-c1ccccc1Cl | 4.4 | 300 | 300 |  |  |  | EC50 [8]: 300 nM
15 | Cc1cccc2nc(CSc3ncnc4[nH]cnc34)n(-c3ccccc3Cl)c(=O)c12 | 3.5 | 300 | 200 |  |  |  | EC50 [9]: 25 nM; EC50 [8]: 300 nM
16 | CN1CCN(n2c(CSc3ncnc4[nH]cnc34)nc3ccccc3c2=O)CC1 |  |  |  | 61 µM |  |  | IC50 [5]: 105 µM
17 | O=c1c2ccccc2nc(CSc2ncnc3[nH]cnc23)n1N1CCOCC1 |  | 900 | 5000 |  |  |  | inhibition [7]: 57%
18 | CCCCn1c(Cn2cnc3c(N)ncnc32)nc2ccccc2c1=O |  |  |  | 41 µM | 1 |  | 
19 | Cc1cccc2nc(Cn3cnc4c(N)ncnc43)n(-c3ccccc3F)c(=O)c12 | 5 | 400 | 900 | 95 µM and 14 µM |  |  | IC50 [5]: 90 µM and 70 µM
20 | Nc1ncnc2c1ncn2Cc1nc2cccc(F)c2c(=O)n1Cc1ccccc1 | 6.3 | 2000 | 5000 | 30 µM | -10 |  | 
21 | O=c1c2ccccc2nc(CSc2ncnc3[nH]cnc23)n1-c1ccncc1 |  |  |  | 25 µM | 30 |  | 
22 | O=c1c2c(F)cccc2nc(CSc2ncnc3[nH]cnc23)n1-c1ccccc1Cl | 1.8 | 1200 | 1300 |  |  |  | inhibition [7]: 83%; EC50 [8]: 2000 nM
23 | Cc1cccc2nc(Cn3cnc4c(N)ncnc43)n(-c3ccccc3C(C)C)c(=O)c12 | 3.4 | 100 | 500 |  | -10 |  | IC50 [5]: 49 µM; EC50 [8]: 300 nM
24 | O=c1c2ccccc2nc(CSc2ncnc3[nH]cnc23)n1-c1ccccc1 |  | 1400 |  |  |  |  | inhibition [7]: 39%
25 | Nc1ncnc2c1ncn2Cc1nc2cccc(Cl)c2c(=O)n1-c1ccccc1F |  | 300 | 300 | 108 µM and 11 µM |  |  | IC50 [7]: 50 µM
26 | O=c1c2cc(Br)ccc2nc(CSc2ncnc3[nH]cnc23)n1-c1ccccc1Cl |  |  |  |  | 11 | -8 | 
27 | Nc1ncnc2c1ncn2Cc1nc2ccccc2c(=O)n1N1CCOCC1 |  |  |  |  | 11 | 43 | 

Row | SMILES | EC50 [1] [µM] | EC50 [2] [nM] | EC50 [3] [nM] | IC50 [4] | inhibition [5] [%] | inhibition [4] [%] | further results
28 | O=c1c2cc(O)ccc2nc(CSc2ncnc3[nH]cnc23)n1-c1ccccc1Cl |  |  | 2900 |  |  | 24 | IC50 [5]: 100 µM
29 | O=c1c2ccccc2nc(CSc2ncnc3[nH]ncc23)n1-c1ccccc1Cl | 5.9 | 3100 | > 20000 |  | 38 | 29 | IC50 [5]: 105 µM; EC50 [8]: 1000 nM
30 | O=c1c2ccc([N+](=O)[O-])cc2nc(CSc2ncnc3[nH]cnc23)n1-c1ccccc1Cl |  |  |  |  | 17 | 9 | 
31 | O=c1c2cccc(Cl)c2nc(CSc2ncnc3[nH]cnc23)n1-c1ccccc1Cl | 3.5 | 1800 |  | 110 µM |  |  | IC50 [5]: 100 µM
32 | Cc1ccccc1-n1c(CSc2ncnc3[nH]cnc23)nc2cccc(Cl)c2c1=O |  | 200 | 300 |  | 26 |  | IC50 [5]: 48 µM
33 | Cc1ccccc1-n1c(Cn2cnc3c(N)ncnc32)nc2cccc(C)c2c1=O |  | 100 |  |  |  |  | 
34 | O=c1c2c(Cl)cccc2nc(CSc2ncnc3[nH]cnc23)n1-c1ccccc1F |  | 300 | 900 | 105 µM and 55 µM |  |  | 
35 | O=c1c2ccccc2nc(CSc2ncnc3[nH]cnc23)n1Cc1ccccc1 |  | 1200 | 1300 | 80 µM |  | 42 | EC50 [8]: 2000 nM
36 | O=c1c2ccccc2nc(CSc2ncnc3[nH]cnc23)n1-c1ccc(Cl)cc1 |  |  |  |  |  | 31 | IC50 [5]: 0.7 µM
37 | COc1ccccc1Cn1c(CSc2ncnc3[nH]cnc23)nc2ccccc2c1=O | 4.1 | 900 | 5500 | 31 µM |  | 27 | EC50 [8]: 200 nM
38 | COc1cccc(-n2c(CSc3ncnc4[nH]cnc34)nc3ccccc3c2=O)c1 |  |  |  |  | 23 | 36 | 
39 | O=c1c2cc(F)ccc2nc(CSc2ncnc3[nH]cnc23)n1-c1ccccc1Cl |  | 400 | 1000 | 13 µM |  | 19 | 
40 | COc1cc2nc(CSc3ncnc4[nH]cnc34)n(-c3ccccc3Cl)c(=O)c2cc1OC |  |  |  |  | 9 | 19 | 
41 | Nc1ncnc2c1ncn2Cc1nc2cccc(Cl)c2c(=O)n1-c1ccccc1Cl | 5.3 | 200 | 300 | 6 µM and 44 µM |  |  | 
42 | Nc1ncnc2c1ncn2Cc1nc2ccc(Br)cc2c(=O)n1-c1ccccc1Cl |  |  |  |  | 12 | 22 | 
43 | O=c1c2cc(F)c(F)cc2nc(CSc2ncnc3[nH]cnc23)n1-c1ccccc1Cl |  | > 2000 | 2000 | 110 µM and 58 µM |  |  | 
44 | O=c1c2ccccc2nc(CSc2ncnc3[nH]cnc23)n1-c1ccccc1Cl | 5.5 | 900 | 2200 |  |  |  | EC50 [10]: 2000 nM; inhibition [11]: 99%; EC50 [12]: 2000 nM; EC50 [8]: 1000 to 5000 nM
45 | O=c1c2ccc(F)cc2nc(CSc2ncnc3[nH]cnc23)n1-c1ccccc1Cl | 2.3 | 1800 |  | 110 µM |  | -1 | inhibition [7]: 40%
46 | O=c1c2cc(Cl)ccc2nc(CSc2ncnc3[nH]cnc23)n1-c1ccccc1Cl |  |  |  |  | 31 | 31 | 
47 | O=c1cc(N2CCOCC2)oc2c(-c3ccccc3)cccc12 |  | 900 |  |  |  |  | inhibition ([9]; concentration not given here): 100%
48 | Nc1ncnc2c1ncn2Cc1nc2cccc(Cl)c2c(=O)n1-c1ccccc1-c1ccccc1 |  | 300 | 10500 | 6 µM and 18 µM | 30 |  | IC50 [5]: 82 µM
49 | O=c1c2cc3ccccc3cc2nc(CSc2ncnc3[nH]cnc23)n1-c1ccccc1Cl | 0.9 | 900 |  | 105 µM and 100 µM | 0 |  | IC50 [5]: 67 µM
50 | Cc1cccc2nc(CSc3ncnc4[nH]cnc34)n(-c3ccccc3C(C)C)c(=O)c12 | 2.9 | 200 | 300 |  |  |  | 
51 | COc1ccccc1-n1c(CSc2ncnc3[nH]cnc23)nc2ccccc2c1=O |  |  |  | 95 µM | 36 |  | 
52 | COc1cccc(Cn2c(CSc3ncnc4[nH]cnc34)nc3ccccc3c2=O)c1 |  |  |  |  |  |  | IC50 [7]: 72 µM
53 | COc1ccccc1-n1c(CSc2ncnc3[nH]cnc23)nc2cccc(C)c2c1=O |  | 300 | 500 | 30 µM and 9 µM | 19 |  | IC50 [5]: 30 µM
54 | Nc1ncnc2c1ncn2Cc1nc2c(Cl)cccc2c(=O)n1-c1ccccc1Cl |  | 1000 |  | 68 µM | 18 |  | 
